Columns and labels:
Assay type in all cases: in vivo
[1] = tested on: Erysiphe graminis f. sp. tritici; assay: Test E: wheat seedlings sprayed with test suspension, inoculated with Erysiphe graminis f. sp. tritici (wheat powdery mildew), visual disease rating
Description: (§1) General protocol for preparing test suspensions for Tests A-E: the test compounds were first dissolved in acetone in an amount equal to 3% of the final volume and then suspended at the desired concentration (in ppm) in acetone and purified water (50/50 mix by volume) containing 250 ppm of the surfactant Trem® 014 (polyhydric alcohol esters). The resulting test suspensions were then used in Tests A-E. Samples were applied to plants at either a 10 ppm (**), 40 ppm, 50 ppm (*) or 200 ppm (#) test solution to the point of run-off on the test plants with the equivalent of a rate of 40 g ai/ha, 160 g ai/ha, 200 g ai/ha, or 800 g ai/ha, respectively.
The test suspension was sprayed to the point of run-off on wheat seedlings. The following day the seedlings were inoculated with a spore dust of Erysiphe graminis f. sp. tritici, (the causal agent of wheat powdery mildew) and incubated in a growth chamber at 20° C. for 7 or 8 days, after which time visual disease ratings were made.
(§2) Results for Tests A-E are given in Table A. In the Table, a rating of 100 indicates 100% disease control and a rating of 0 indicates no disease control (relative to the controls). A dash (-) indicates no test results.

[2] = tested on: Puccinia recondite f. sp. tritici; assay: Test D: wheat seedlings sprayed with test suspension, inoculated with Puccinia recondite f. sp. tritici (wheat leaf rust), visual disease rating
Description: as §1
The test suspension was sprayed to the point of run-off on wheat seedlings. The following day the seedlings were inoculated with a spore suspension of Puccinia recondite f. sp. tritici; (the causal agent of wheat leaf rust) and incubated in a saturated atmosphere at 20° C. for 24 h, and then moved to a growth chamber at 20° C. for 6 days, after which time visual disease ratings were made.
as §2

Septoria tritici = assay: Test C: wheat seedlings sprayed with test suspension, inoculated with Septoria tritici (wheat leaf blotch), visual disease rating
Description: as §1
The test suspension was sprayed to the point of run-off on wheat seedlings. The following day the seedlings were inoculated with a spore suspension of Septoria tritici (the causal agent of wheat leaf blotch) and incubated in a saturated atmosphere at 24° C. for 48 h, and then moved to a growth chamber at 20° C. for 21 days, after which time visual disease ratings were made.
as §2

[3] = tested on: Stagonospora nodorum (also known as Septoria nodorum); assay: Test B: wheat seedlings sprayed with test suspension, inoculated with Stagonospora nodorum (wheat glume blotch), visual disease rating
Description: as §1
The test suspension was sprayed to the point of run-off on wheat seedlings. The following day the seedlings were inoculated with a spore suspension of Stagonospora nodorum (also known as Septoria nodorum; the causal agent of wheat glume blotch) and incubated in a saturated atmosphere at 20° C. for 48 h, and then moved to a growth chamber at 20° C. for 6 days, after which time visual disease ratings were made.
as §2

[4] = Cmpd. No. unmarked, 100 = 100% disease control, 0 = no control relative to controls
[5] = Cmpd. No. marked '*' (other test rate; meaning of mark not shown)
[6] = Cmpd. No. marked '**' (other test rate; meaning of mark not shown)

Row | Compound | Test E rating (% disease control) [1, 4] [%] | Test D rating (% disease control) [2, 4] [%] | Test C rating (% disease control) (Septoria tritici; [4]) [%] | Test B rating (% disease control) [3, 4] [%] | also measured
1 | Cn1nc(C(F)F)c(C(=O)N(Cc2ccc(-n3ccnn3)cc2Cl)C2CC2)c1F [compound 66] | 0 | 28 | 94 | 97 | –
2 | Cn1cc(C(=O)N(Cc2ccc(-n3ccc(Br)n3)cc2Cl)C2CC2)c(C(F)F)n1 [compound 49] | 69 | 9 | 99 | 98 | –
3 | Cn1nc(C(F)F)c(C(=O)N(Cc2c(Cl)cc(-n3ccc(Br)n3)cc2Cl)C2CC2)c1F [compound 132] | 91 | 100 | 99 | 100 | –
4 | CC(c1ccc(C(F)(F)F)c(-n2ccc(C(F)(F)F)n2)c1)N(C(=O)c1c(C(F)F)nn(C)c1F)C1CC1 (stereo not drawn) [compound 51] | 84 | 0 | 88 | 100 | –
5 | CC(c1ccc(Cl)c(-n2ccc(C(F)(F)F)n2)c1)N(C(=O)c1cn(C)nc1C(F)F)C1CC1 (stereo not drawn) [compound 126] | 48 | 68 | 92 | 92 | –
6 | Cn1nc(C(F)F)c(C(=O)N(Cc2ccc(-n3cncn3)cc2Cl)C2CC2)c1F [compound 145] | 0 | 0 | 95 | 95 | –
7 | Cn1nc(C(F)F)c(C(=O)N(Cc2cnc(-n3ccc(C(F)(F)F)n3)c(Cl)c2)C2CC2)c1F [compound 43] | 0 | 0 | 6 | 0 | –
8 | CC(c1cc(-n2ccc(C(F)(F)F)n2)ccc1Cl)N(C(=O)c1c(C(F)F)nn(C)c1F)C1CC1 (stereo not drawn) [compound 135] | – | – | – | – | Test E rating (% disease control) [1, 5]: 95%; Test D rating (% disease control) [2, 5]: 80%; Test C rating (% disease control) (Septoria tritici; [5]): 99%; Test B rating (% disease control) [3, 5]: 100%
9 | Cn1cc(C(=O)N(Cc2ccc(-n3cncn3)cc2Cl)C2CC2)c(C(F)F)n1 [compound 50] | 0 | 0 | 28 | 0 | –
10 | Cn1nc(C(F)F)c(C(=O)N(Cc2ccc(-n3ccc(Br)n3)cc2Cl)C2CC2)c1F [compound 47] | 99 | 98 | 99 | 100 | –
11 | Cn1nc(C(F)F)c(C(=O)N(Cc2ccc(-n3cnc(Br)n3)cc2Cl)C2CC2)c1F [compound 147] | 0 | 0 | 93 | 0 | –
12 | Cn1nc(C(F)F)c(C(=O)N(Cc2ccc(-n3ccc(C(F)(F)F)n3)cc2Br)C2CC2)c1F [compound 106] | 97 | 99 | 96 | 100 | –
13 | CC(c1cc(-n2ccc(C(F)(F)F)n2)ccc1OC(F)(F)F)N(C(=O)c1cn(C)nc1C(F)F)C1CC1 (stereo not drawn) [compound 130] | 72 | 68 | 28 | 93 | –
14 | COc1ccc(-n2ccc(C(F)(F)F)n2)cc1C(C)N(C(=O)c1c(C(F)F)nn(C)c1F)C1CC1 (stereo not drawn) [compound 142] | – | – | – | – | Test E rating (% disease control) [1, 5]: 98%; Test D rating (% disease control) [2, 5]: 83%; Test C rating (% disease control) (Septoria tritici; [5]): 97%; Test B rating (% disease control) [3, 5]: 100%
15 | CC(c1ccc(-n2ccc(C(F)(F)F)n2)cc1Cl)N(C(=O)c1c(C(F)F)nn(C)c1F)C1CC1 (stereo not drawn) [compound 72] | 99 | 99 | 100 | 100 | –
16 | Cc1ccc(-n2ccc(C(F)(F)F)n2)cc1CN(C(=O)c1c(C(F)F)nn(C)c1F)C1CC1 [compound 84] | – | – | – | – | Test E rating (% disease control) [1, 5]: 94%; Test D rating (% disease control) [2, 5]: 89%; Test C rating (% disease control) (Septoria tritici; [5]): 98%; Test B rating (% disease control) [3, 5]: 100%

Row | Compound | Test E rating (% disease control) [1, 4] [%] | Test D rating (% disease control) [2, 4] [%] | Test C rating (% disease control) (Septoria tritici; [4]) [%] | Test B rating (% disease control) [3, 4] [%] | also measured
17 | Cn1nc(C(F)F)c(C(=O)N(Cc2c(Cl)cc(-n3ccc(C(F)(F)F)n3)cc2Cl)C2CC2)c1F [compound 127] | 98 | 100 | 99 | 100 | –
18 | Cn1nc(C(F)F)c(C(=O)N(Cc2cc(-n3ccc(C(F)(F)F)n3)ccc2Cl)C2CC2)c1F [compound 86] | – | – | – | – | Test E rating (% disease control) [1, 5]: 95%; Test D rating (% disease control) [2, 5]: 68%; Test C rating (% disease control) (Septoria tritici; [5]): 99%; Test B rating (% disease control) [3, 5]: 100%
19 | Cn1nc(C(F)F)c(C(=O)N(Cc2ccc(-n3ccc(C(F)(F)F)n3)cc2F)C2CC2)c1F [compound 68] | 99 | 91 | 97 | 100 | –
20 | Cn1nc(C(F)F)c(C(=O)N(Cc2ccc(-n3ccc(C(F)(F)F)n3)c(Br)c2)C2CC2)c1F [compound 98] | – | – | – | – | Test E rating (% disease control) [1, 6]: 84%; Test D rating (% disease control) [2, 6]: 86%; Test C rating (% disease control) (Septoria tritici; [6]): 94%; Test B rating (% disease control) [3, 6]: 64%
21 | CC(c1cc(-n2ccc(C(F)(F)F)n2)cc(C(F)(F)F)c1)N(C(=O)c1cn(C)nc1C(F)F)C1CC1 (stereo not drawn) [compound 42] | 0 | 0 | 39 | 0 | –
22 | CC(c1cc(-n2ccc(C(F)(F)F)n2)ccc1[N+](=O)[O-])N(C(=O)c1c(C(F)F)nn(C)c1F)C1CC1 (stereo not drawn) [compound 134] | – | – | – | – | Test E rating (% disease control) [1, 5]: 0%; Test D rating (% disease control) [2, 5]: 68%; Test C rating (% disease control) (Septoria tritici; [5]): 43%; Test B rating (% disease control) [3, 5]: 94%
23 | Cc1ncn(-c2ccc(CN(C(=O)c3c(C(F)F)nn(C)c3F)C3CC3)c(Cl)c2)n1 [compound 65] | 0 | 0 | 98 | 87 | –
24 | Cn1nc(C(F)F)c(C(=O)N(Cc2ccc(-n3cnc(C(F)(F)F)n3)cc2Cl)C2CC2)c1F [compound 67] | 0 | 0 | 99 | 0 | –
25 | Cc1ccc(-n2ccc(C(F)(F)F)n2)cc1C(C)N(C(=O)c1cn(C)nc1C(F)F)C1CC1 (stereo not drawn) [compound 45] | 90 | 9 | 96 | 100 | –
26 | C#CCOc1cc(-n2ccc(C(F)(F)F)n2)ccc1CN(C(=O)c1c(C(F)F)nn(C)c1F)C1CC1 [compound 62] | 94 | 99 | 99 | 99 | –
27 | Cn1cc(C(=O)N(Cc2ccnc(-n3ccc(C(F)(F)F)n3)c2Cl)C2CC2)c(C(F)F)n1 [compound 100] | – | – | – | – | Test E rating (% disease control) [1, 6]: 0%; Test D rating (% disease control) [2, 6]: 0%; Test C rating (% disease control) (Septoria tritici; [6]): 6%; Test B rating (% disease control) [3, 6]: 0%
28 | CC(c1cc(-n2ccc(C(F)(F)F)n2)ccc1Br)N(C(=O)c1cn(C)nc1C(F)F)C1CC1 (stereo not drawn) [compound 128] | 93 | 0 | 92 | 100 | –
29 | Cn1cc(C(=O)N(Cc2ccc(-n3cccn3)cc2Cl)C2CC2)c(C(F)F)n1 [compound 48] | 73 | 0 | 98 | 100 | –
30 | CC(c1cc(-n2ccc(C(F)(F)F)n2)cc(C(F)(F)F)c1)N(C(=O)c1c(C(F)F)nn(C)c1F)C1CC1 (stereo not drawn) [compound 56] | 92 | 86 | 97 | 100 | –
31 | COc1ccc(-n2ccc(C(F)(F)F)n2)cc1C(C)N(C(=O)c1cn(C)nc1C(F)F)C1CC1 (stereo not drawn) [compound 120] | 95 | – | 92 | 100 | –

Reference: patent US10098350B2, “Fungicidal amides” (E. I. DU PONT DE NEMOURS AND COMPANY, priority 2013, dated 2018)
